Source: US20090264452A1 (priority 2004, published 2009)
Counter-ions that a name gives are not always drawn.

Biological target: T1, human cannabinoid CB2 receptor (Homo sapiens, UniProt P34972)
T1 construct: expressed in transfected cells; host or cells: Saccharomyces cerevisiae strain MMY23 (integration at the ura3 locus, GPD promoter)
Test: Cannabinoid CB2 receptor agonist activity, yeast reporter assay
Type: cell-based
Conditions: for Emax: relative to HU210, yeast cells expressing human CB2, read-out: efficacy value (Emax) at the cloned human cannabinoid CB2 receptor; for EC50: yeast (Saccharomyces cerevisiae) cells expressing human CB2, agonist, read-out: EC50 at the cloned human cannabinoid CB2 receptor
Experimental: The cannabinoid CB2 receptor agonist activity of the compounds of formula (I) was determined in accordance with the following experimental method.
Yeast (Saccharomyces cerevisiae) cells expressing the human cannabinoid CB2 receptor were generated by integration of an expression cassette into the ura3 chromosomal locus of yeast strain MMY23. This cassette consisted of DNA sequence encoding the human CB2 receptor flanked by the yeast GPD promoter to the 5′ end of CB2 and a yeast transcriptional terminator sequence to the 3′ end of CB2. MMY23 expresses a yeast/mammalian chimeric G-protein alpha subunit in which the C-terminal 5 amino acids of Gpa1 are replaced with the C-terminal 5 amino acids of human Gαi3 (as described in Brown et al. (2000), Yeast 16:11-22). Cells were grown at 30° C. in liquid Synthetic Complete (SC) yeast media (Guthrie and Fink (1991), Methods in Enzymology, Vol. 194) lacking uracil, tryptophan, adenine and leucine to late logarithmic phase (approximately 6 OD600/ml).
Agonists were prepared as 10 mM stocks in DMSO. EC50 values (the concentration required to produce 50% maximal response) were estimated using dilutions of between 3- and 5-fold (BiomekFX, Beckman) into DMSO. Agonist solutions in DMSO (1% final assay volume) were transferred into black, clear bottom, microtitre plates from NUNC (96- or 384-well). Cells were suspended at a density of 0.2 OD600/ml in SC media lacking histidine, uracil, tryptophan, adenine and leucine and supplemented with 10 mM 3-aminotriazole, 0.1M sodium phosphate pH 7.0, and […] fluorescein di-β-D-glucopyranoside (FDGlu). This mixture (50 ul per well for 384-well plates, 200 ul per well for 96-well plates) was added to agonist in the assay plates (Multidrop 384, Labsystems). After incubation at 30° C. for 24 hours, fluorescence resulting from degradation of FDGlu to fluorescein due to exoglucanase, an endogenous yeast enzyme produced during agonist-stimulated cell growth, was determined using a Spectrofluor microtitre plate reader (Tecan; excitation wavelength: 485 nm; emission wavelength: 535 nm). Fluorescence was plotted against compound concentration an iteratively curve fitted using a four parameter fit to generate a concentration effect value. Efficacy (Emax) was calculated from the equation
Emax=Max[compound X]−Min[compound X]/Max[HU210]−Min[HU210]×100%
where Max[compound X] and Min[compound X] are the fitted maximum and minimum respectively from the concentration effect curve for compound X, and Max[HU210] and Min[HU210] are the fitted maximum and minimum respectively from the concentration effect curve for (6aR,10aR)-3-(1,1′-Dimethylheptyl)-6a,7,10,10a-tetrahydro-1-hydroxy-6,6-dimethyl-6H-dibenzo[b,d]pyran-9-methanol (HU210; available from Tocris). Equieffective molar ratio (EMR) values were calculated from the equation
Where EC50 [compound X] is the EC50 of compound X and EC50 [HU210] is the EC50 of HU210.

T1 sequence (P34972 whole entry): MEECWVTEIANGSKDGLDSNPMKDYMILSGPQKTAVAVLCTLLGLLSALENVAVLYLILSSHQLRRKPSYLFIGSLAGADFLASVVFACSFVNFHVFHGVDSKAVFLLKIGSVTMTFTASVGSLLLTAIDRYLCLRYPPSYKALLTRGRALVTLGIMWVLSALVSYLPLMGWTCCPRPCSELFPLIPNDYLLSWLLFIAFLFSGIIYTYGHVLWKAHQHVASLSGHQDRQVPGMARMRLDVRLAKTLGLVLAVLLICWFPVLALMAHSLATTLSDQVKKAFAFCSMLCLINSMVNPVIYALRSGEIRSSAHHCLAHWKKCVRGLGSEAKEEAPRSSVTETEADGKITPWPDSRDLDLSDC

CCc1nc(Nc2cccc(Cl)c2)ncc1C(=O)NCC1CCCCC1 [Example 3]
Emax: > 50% | EC50: < 300 nM

CC(C)c1nc(Nc2cccc(Cl)c2)ncc1C(=O)NCC1CCOCC1 [Example 2, 2-(3-Chlorophenylamino)-4-isopropylpyrimidin-5-carboxylic acid (tetrahydro-pyran-4-ylmethyl)-amide]
Emax: > 50% | EC50: < 300 nM

CC(C)c1nc(Nc2cccc(Cl)c2)ncc1C(=O)NCC1CCCCC1 [Example 1]
Emax: > 50% | EC50: < 300 nM

CCc1nc(Nc2cccc(Cl)c2)ncc1C(=O)NCC1CCOCC1 [Example 4, 2-(3-Chlorophenylamino)-4-ethylpyrimidin-5-carboxylic acid (tetrahydro-pyran-4-ylmethyl)-amide]
Emax: > 50% | EC50: 300 to 1000 nM

CC(c1nc(Nc2cccc(Cl)c2)ncc1C(=O)NCC1CCOCC1)N(C)C (stereo not shown) [Example 5, 2-[(3-chlorophenyl)amino]-4-[1-(dimethylamino)ethyl]-N-(tetrahydro-2H-pyran-4-ylmethyl)-5-pyrimidinecarboxamide hydrochloride]
Emax: < 50% | EC50: > 1000 nM
